# Several values for one entry are separate records, joined by “and”; a condition that tells them apart may be missing. Equal values may be shown once.
# Biological target: T1, DrOTOP1 M573W (Danio rerio, UniProt Q7ZWK8, M573W)
# T1 construct: A previously generated codon-optimized full-length DrOTOP1[8]; (UniProt: Q7ZWK8) construct; expressed in transfected cells; host or cells: HEK-293 (CRL-1573, ATCC)
# T1 sequence (Q7ZWK8 1-586 M573W): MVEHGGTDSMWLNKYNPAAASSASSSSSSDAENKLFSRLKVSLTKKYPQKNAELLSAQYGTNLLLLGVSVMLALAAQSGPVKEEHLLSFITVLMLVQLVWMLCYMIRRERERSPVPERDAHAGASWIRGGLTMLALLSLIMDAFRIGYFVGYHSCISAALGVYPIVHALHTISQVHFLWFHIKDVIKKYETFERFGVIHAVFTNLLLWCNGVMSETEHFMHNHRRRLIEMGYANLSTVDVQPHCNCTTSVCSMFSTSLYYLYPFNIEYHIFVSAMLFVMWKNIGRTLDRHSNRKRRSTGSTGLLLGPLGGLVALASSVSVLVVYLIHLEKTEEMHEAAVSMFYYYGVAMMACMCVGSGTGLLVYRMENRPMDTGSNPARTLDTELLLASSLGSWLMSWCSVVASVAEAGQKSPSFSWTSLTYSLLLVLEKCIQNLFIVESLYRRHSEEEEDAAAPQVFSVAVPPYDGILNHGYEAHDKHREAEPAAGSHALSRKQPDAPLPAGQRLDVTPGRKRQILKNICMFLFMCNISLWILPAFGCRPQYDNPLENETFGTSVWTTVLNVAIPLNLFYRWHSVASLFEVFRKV
# Test: Whole-cell patch-clamp, inhibition of acid-evoked currents, DrOTOP1 M573W (outer site)
# Format: cell-based, zebrafish (Danio rerio)
# Description: To functionally test the significance of the two binding sites identified by cryo-EM, we generated point mutations of DrOTOP1 using the binding poses and conformational changes observed in DrOTOP1_C2.2 to guide our mutations. As per the binding pose that best fits our cryo-EM density, C2.2 forms the following interactions in the outer site: hydrophobic packing against many non-polar residues W126, G130, M133, L134, F271, F570, and M573, and π-stacking with W532 (Fig. 5A). In addition, C2.2 could potentially form H-bonds with E267, if the sidechain is protonated or a water bridge is present, and with H574 if it moves closer (Fig. 5A). Likewise, C2.36 presents a heterocyclic nitrogen that can potentially form a H-bond with E267, similarly, provided a protonation or water bridge is present (Fig. 5B). In addition, C2.36 forms a T-shaped π-stacking interaction with H574, whose sidechain has rotated 90 degrees (compared to DrOTOP1_apo), presumably to accommodate the interaction (Fig. 5B). Considering other inhibitors discovered from the second round of screening, many contain functional groups like the carbonyl groups of Group 1 molecules and the heterocyclic nitrogen atoms of Group 2 molecules (Supplementary Fig. 3E), that can potentially form similar H-bonds with E267 as C2.2 and C2.36, assuming the binding modes are similar. In the central site, C2.2 binds with the following interactions: hydrophobic packing with residues V201, F271, A274, V278, and A388, π-stacking with F277, and H-bonding with E384 (Fig. 5C).
# Each non-aromatic residue was mutated to tryptophan, which was expected to cause steric occlusion. […] This seemed appropriate given the small number of H-bonds in these pockets, the ambiguity of how the inhibitors fit the density, and the prevalence of hydrophobic packing interactions (Fig. 5A–C).
# HEK-293 cells (CRL-1573, ATCC) were cultured in DMEM (Thermofisher 11995073) containing 10% fetal bovine serum (Life Technology 16000044) and Penicillin-Streptomycin (100 I.U./mL) and (100 µg/mL), respectively. Cells were transfected with WT DrOTOP1 or mutant DrOTOP1 channels in 35 mm petri dishes, with ~ 500 ng DNA and 2 μL TransIT-LT1 transfection reagent (Mirus Bio Corporation, Cat # MIR2300) following the manufacturer’s protocol. All constructs were subcloned into a pcDNA3.1 vector that adds an N-terminal fusion tag consisting of an octahistidine tag followed by eGFP, a Gly-Thr-Gly-Thr linker and a 3C protease cleavage site ([…]) followed by WT DrOTOP1, WT mOTOP1, WT hOTOP1, or mutated DrOTOP1. Point mutations were generated via In-Fusion Cloning (Takara) using single-stranded DNA primers generated through IDT and sequence confirmed by Sanger sequencing (GeneWiz).
# Whole-cell patch-clamp recording was performed as previously described[6],[22],[25]. Recordings were made with an Axopatch 200B amplifier, digitized with a Digidata 1322a 16-bit data acquisition system, acquired with pClamp 8.2 and analyzed with Clampfit 10 (Molecular Devices). Recordings were sampled at 5 kHz and filtered at 1 kHz. Patch Pipettes with resistance of […] were fabricated from borosilicate glass, and only recordings with a giga-Ohm seal were used in analysis. Membrane potential was held at −80 mV for the duration of recordings. At the beginning of recordings and between, cells were washed with Tyrode’s solution (see below). Once a giga-Ohm seal was reached, cells were lifted and placed in front of microcapillary tubes controlled by a Fast-Step perfusion system (Warner Instruments) so that extracellular solutions could be rapidly exchanged during each experiment.
# Standard Tyrode’s solution consisted of 145 mM NaCl, 5 mM KCl, MgCl2, 2 mM CaCl2, 20 mM D-Glucose, and 10 mM HEPES (for pH 7.4). All other extracellular patch-clamp solutions contained 160 mM NMDG-Cl, 2 mM CaCl2, and the following buffers: 10 mM HEPES (for pH 7.4), 10 mM MES (for pH 6.5-5.5), 10 mM CHES for pH 10, and 10 mM HomoPIPES for (pH 5.0). pH adjusted with HCl. […]
SMILES,Hill coefficient,"inhibition at 3 µM (3 µM, single cells) [%]","inhibition at 30 µM (30 µM, single cells) [%]","inhibition at 100 µM (100 µM, single cells) [%]","inhibition at 300 µM (300 µM, single cells) [%]",IC50 (pH 5.5) [µM],"Inhibition of currents (100 µM, single cells)"
C=C(C)COc1ccccc1NC(=O)c1nc[nH]c1C [C2.2],1.238,4.02,46.6,84.3,91.4,30.4,–
"O=C(/C(=N\O)c1ccccc1)c1ccccc1 [C11, benzil monoxime]",–,–,–,51.6,–,–,53.3175% and 66.3617% and 67.3077% and 51.54%
